Peptide text beside a SMILES is read from it.
Legend:
[1] = test system: Escherichia coli ATCC 25922; conditions: ATCC 25922
In short: (§1)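 Two-fold serial dilutions of peptide, in water with polysorbate 80 (0.002% final), met bacteria adjusted to 0.5 McFarland then diluted to about 5×10^5 CFU/mL. Medium was cation-adjusted Mueller-Hinton II broth; peptide stocks were 1 mg/mL in sterile water.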

[2] = test system: Escherichia coli MCR-1 Af 45; conditions: MCR-1 Af 45
In short: as §1

[3] = test system: Klebsiella pneumoniae SSI3010; conditions: SSI3010
In short: as §1

[4] = test system: human red blood cells (hRBC); test: Hemolysis of human red blood cells; assay type: cell-based; conditions: red cells of human, 1 h
In short: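 PBS-washed human red blood cells (20% v/v) were incubated with peptide at 200 μg/mL for 1 h at 37 °C with shaking. Supernatant OD was read at 540 nm after 8-fold dilution. Hemolysis is expressed as percent of the water control.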

Structure (SMILES) | Escherichia coli ATCC 25922 MIC [1] | Escherichia coli MCR-1 Af 45 MIC [2] | Klebsiella pneumoniae SSI3010 MIC [3] | Hemolysis at 0.2 g/L [4]
CC[C@H](C)[C@H](NC(=O)[C@@H](NC(=O)[C@@H]1CCCN1C(=O)[C@@H](NC(=O)CN(C)C(=O)CNC(=O)[C@@H](N)CCCCN)C(C)C)[C@@H](C)CC)C(=O)N[C@@H](Cc1ccc(O)cc1)C(=O)N[C@@H]1C(=O)N[C@@H](CC(N)=O)C(=O)N[C@@H](CCCNC(=N)N)C(=O)N[C@@H](CCN)C(=O)N[C@@H]([C@@H](C)O)C(=O)N[C@H](CCN)C(=O)N[C@@H](CCCCN)C(=O)N[C@H](C(=O)N[C@@H](CCN)C(=O)N[C@@H](CCCNC(=N)N)C(=O)N[C@@H](Cc2ccc(O)cc2)C(=O)O)CSSC1(C)C [Example 94, Lys-Gly-Sar-Val-Pro-Ile-Ile-Tyr-Pen-Asn-Arg-Dab-Thr-^DDab-Lys-Cys-Dab-Arg-Tyr] (HELM PEPTIDE1{K.G.[Sar].V.P.I.I.Y.[Pen].N.R.[Dab].T.[NCC[C@@H](N[*:1])C(=O)[*:2]].K.C.[Dab].R.Y}$PEPTIDE1,PEPTIDE1,9:R3-16:R3$$$V2.0) | 0.125 µg/mL | ≤0.03125 µg/mL | 0.125 µg/mL | 0%
CC[C@H](C)[C@H](NC(=O)[C@@H](NC(=O)[C@@H]1CCCN1C(=O)[C@@H](NC(=O)CN(C)C(=O)CN(C)C(=O)[C@@H](N)CCCCN)C(C)C)[C@@H](C)CC)C(=O)N[C@@H](Cc1ccc(O)cc1)C(=O)N[C@@H]1C(=O)N[C@@H](CC(N)=O)C(=O)N[C@@H](CCCNC(=N)N)C(=O)N[C@@H](CCN)C(=O)N[C@@H]([C@@H](C)O)C(=O)N[C@H](CCN)C(=O)N[C@@H](CCCCN)C(=O)N[C@H](C(=O)N[C@@H](CCN)C(=O)N[C@@H](CCCNC(=N)N)C(=O)N[C@@H](Cc2ccc(O)cc2)C(=O)O)CSSC1(C)C [Example 95, Lys-Sar-Sar-Val-Pro-Ile-Ile-Tyr-Pen-Asn-Arg-Dab-Thr-^DDab-Lys-Cys-Dab-Arg-Tyr] (HELM PEPTIDE1{K.[Sar].[Sar].V.P.I.I.Y.[Pen].N.R.[Dab].T.[NCC[C@@H](N[*:1])C(=O)[*:2]].K.C.[Dab].R.Y}$PEPTIDE1,PEPTIDE1,9:R3-16:R3$$$V2.0) | 0.125 µg/mL | 0.125 µg/mL | 0.25 µg/mL | 0%
CC[C@H](C)[C@H](NC(=O)[C@@H](NC(=O)[C@@H]1CCCN1C(=O)[C@@H](NC(=O)[C@@H]1CCCN1C(=O)[C@H](CCCCN)NC(=O)CNCCN)C(C)C)[C@@H](C)CC)C(=O)N[C@@H](Cc1ccc(O)cc1)C(=O)N[C@H]1CSSC[C@@H](C(=O)N[C@@H](CCN)C(=O)N[C@@H](CCCNC(=N)N)C(=O)N[C@@H](Cc2ccc(O)cc2)C(=O)O)NC(=O)[C@H](CCCCN)NC(=O)[C@@H](CCN)NC(=O)[C@H]([C@@H](C)O)NC(=O)[C@H](CCN)NC(=O)[C@H](CCCNC(=N)N)NC(=O)[C@H](CC(N)=O)NC1=O [Example 96] (HELM PEPTIDE1{[NCCNCC(=O)[*:2]].K.P.V.P.I.I.Y.C.N.R.[Dab].T.[NCC[C@@H](N[*:1])C(=O)[*:2]].K.C.[Dab].R.Y}$PEPTIDE1,PEPTIDE1,9:R3-16:R3$$$V2.0) | 0.0625 µg/mL | 0.0625 µg/mL | 0.125 µg/mL | 0%
CC[C@H](C)[C@H](NC(=O)[C@@H](NC(=O)[C@@H]1CCCN1C(=O)[C@@H](NC(=O)[C@@H]1CCCN1C(=O)[C@H](CCCCN)NC(=O)CNCCCCN)C(C)C)[C@@H](C)CC)C(=O)N[C@@H](Cc1ccc(O)cc1)C(=O)N[C@H]1CSSC[C@@H](C(=O)N[C@@H](CCN)C(=O)N[C@@H](CCCNC(=N)N)C(=O)N[C@@H](Cc2ccc(O)cc2)C(=O)O)NC(=O)[C@H](CCCCN)NC(=O)[C@@H](CCN)NC(=O)[C@H]([C@@H](C)O)NC(=O)[C@H](CCN)NC(=O)[C@H](CCCNC(=N)N)NC(=O)[C@H](CC(N)=O)NC1=O [Example 97] (HELM PEPTIDE1{[NCCCCNCC(=O)[*:2]].K.P.V.P.I.I.Y.C.N.R.[Dab].T.[NCC[C@@H](N[*:1])C(=O)[*:2]].K.C.[Dab].R.Y}$PEPTIDE1,PEPTIDE1,9:R3-16:R3$$$V2.0; N-terminus assumed) | ≤0.03125 µg/mL | ≤0.03125 µg/mL | ≤0.03125 µg/mL | 0%
CC[C@H](C)[C@H](NC(=O)[C@@H](NC(=O)[C@@H]1CCCN1C(=O)[C@@H](NC(=O)[C@@H]1CCCN1C(=O)[C@H](CCCCN)NC(=O)CNCCCN)C(C)C)[C@@H](C)CC)C(=O)N[C@@H](Cc1ccc(O)cc1)C(=O)N[C@H]1CSSC[C@@H](C(=O)N[C@@H](CCN)C(=O)N[C@@H](CCCNC(=N)N)C(=O)N[C@@H](Cc2ccc(O)cc2)C(=O)O)NC(=O)[C@H](CCCCN)NC(=O)[C@@H](CCN)NC(=O)[C@H]([C@@H](C)O)NC(=O)[C@H](CCN)NC(=O)[C@H](CCCNC(=N)N)NC(=O)[C@H](CC(N)=O)NC1=O [Example 98] (HELM PEPTIDE1{[NCCCNCC(=O)[*:2]].K.P.V.P.I.I.Y.C.N.R.[Dab].T.[NCC[C@@H](N[*:1])C(=O)[*:2]].K.C.[Dab].R.Y}$PEPTIDE1,PEPTIDE1,9:R3-16:R3$$$V2.0) | ≤0.03125 µg/mL | ≤0.03125 µg/mL | 0.0625 µg/mL | 0%
CC[C@H](C)[C@H](NC(=O)[C@@H](NC(=O)[C@@H]1CCCN1C(=O)[C@@H](NC(=O)[C@@H]1CCCN1C(=O)CN(CCN)C(=O)[C@@H](N)CCCCN)C(C)C)[C@@H](C)CC)C(=O)N[C@@H](Cc1ccc(O)cc1)C(=O)N[C@H]1CSSC[C@@H](C(=O)N[C@@H](CCN)C(=O)N[C@@H](CCCNC(=N)N)C(=O)N[C@@H](Cc2ccc(O)cc2)C(=O)O)NC(=O)[C@H](CCCCN)NC(=O)[C@@H](CCN)NC(=O)[C@H]([C@@H](C)O)NC(=O)[C@H](CCN)NC(=O)[C@H](CCCNC(=N)N)NC(=O)[C@H](CC(N)=O)NC1=O [Example 99] (HELM PEPTIDE1{K.[NCCN(CC(=O)[*:2])[*:1]].P.V.P.I.I.Y.C.N.R.[Dab].T.[NCC[C@@H](N[*:1])C(=O)[*:2]].K.C.[Dab].R.Y}$PEPTIDE1,PEPTIDE1,9:R3-16:R3$$$V2.0; N-terminus assumed) | ≤0.03125 µg/mL | ≤0.03125 µg/mL | 0.0625 µg/mL | 0%
CC[C@H](C)[C@H](NC(=O)[C@@H](NC(=O)[C@@H]1CCCN1C(=O)[C@@H](NC(=O)[C@@H]1CCCN1C(=O)CN(CCCCN)C(=O)[C@@H](N)CCCCN)C(C)C)[C@@H](C)CC)C(=O)N[C@@H](Cc1ccc(O)cc1)C(=O)N[C@H]1CSSC[C@@H](C(=O)N[C@@H](CCN)C(=O)N[C@@H](CCCNC(=N)N)C(=O)N[C@@H](Cc2ccc(O)cc2)C(=O)O)NC(=O)[C@H](CCCCN)NC(=O)[C@@H](CCN)NC(=O)[C@H]([C@@H](C)O)NC(=O)[C@H](CCN)NC(=O)[C@H](CCCNC(=N)N)NC(=O)[C@H](CC(N)=O)NC1=O [Example 100] (HELM PEPTIDE1{K.[NCCCCN(CC(=O)[*:2])[*:1]].P.V.P.I.I.Y.C.N.R.[Dab].T.[NCC[C@@H](N[*:1])C(=O)[*:2]].K.C.[Dab].R.Y}$PEPTIDE1,PEPTIDE1,9:R3-16:R3$$$V2.0; N-terminus assumed) | 0.03125 µg/mL | ≤0.03125 µg/mL | 0.0625 µg/mL | 0%
CC[C@H](C)[C@H](NC(=O)[C@@H](NC(=O)[C@@H]1CCCN1C(=O)[C@@H](NC(=O)[C@@H]1CCCN1C(=O)CN(CCCN)C(=O)[C@@H](N)CCCCN)C(C)C)[C@@H](C)CC)C(=O)N[C@@H](Cc1ccc(O)cc1)C(=O)N[C@H]1CSSC[C@@H](C(=O)N[C@@H](CCN)C(=O)N[C@@H](CCCNC(=N)N)C(=O)N[C@@H](Cc2ccc(O)cc2)C(=O)O)NC(=O)[C@H](CCCCN)NC(=O)[C@@H](CCN)NC(=O)[C@H]([C@@H](C)O)NC(=O)[C@H](CCN)NC(=O)[C@H](CCCNC(=N)N)NC(=O)[C@H](CC(N)=O)NC1=O [Example 101] (HELM PEPTIDE1{K.[NCCCN(CC(=O)[*:2])[*:1]].P.V.P.I.I.Y.C.N.R.[Dab].T.[NCC[C@@H](N[*:1])C(=O)[*:2]].K.C.[Dab].R.Y}$PEPTIDE1,PEPTIDE1,9:R3-16:R3$$$V2.0) | 0.0625 µg/mL | 0.03125 µg/mL | 0.0625 µg/mL | 0%
CC[C@H](C)[C@H](NC(=O)CN(CCN)C(=O)[C@@H](NC(=O)[C@@H]1CCCN1C(=O)[C@H](CCCCN)NC(=O)[C@@H](N)CCCCN)C(C)C)C(=O)N[C@H](C(=O)N[C@@H](Cc1ccc(O)cc1)C(=O)N[C@H]1CSSC[C@@H](C(=O)N[C@@H](CCN)C(=O)N[C@@H](CCCNC(=N)N)C(=O)N[C@@H](Cc2ccc(O)cc2)C(=O)O)NC(=O)[C@H](CCCCN)NC(=O)[C@@H](CCN)NC(=O)[C@H]([C@@H](C)O)NC(=O)[C@H](CCN)NC(=O)[C@H](CCCNC(=N)N)NC(=O)[C@H](CC(N)=O)NC1=O)[C@@H](C)CC [Example 102, Lys-Lys-Pro-Val-Ndab-Ile-Ile-Tyr-Cys-Asn-Arg-Dab-Thr-^DDab-Lys-Cys-Dab-Arg-Tyr] (HELM PEPTIDE1{K.K.P.V.[NCCN(CC(=O)[*:2])[*:1]].I.I.Y.C.N.R.[Dab].T.[NCC[C@@H](N[*:1])C(=O)[*:2]].K.C.[Dab].R.Y}$PEPTIDE1,PEPTIDE1,9:R3-16:R3$$$V2.0) | 0.0625 µg/mL | 0.0625 µg/mL | 0.0625 µg/mL | 0%

Source: patent publication US20230295234A1, “ANTIMICROBIAL PEPTIDOMIMETICS” (SPEXIS AG, priority 2020, published 2023)
